Source: patent publication US8536351B2, “2-aryl-5-heterocyclyl-cyclohexane-1,3,dione compounds and their use as herbicides” (Syngenta Crop Protection LLC, priority 2007, dated 2013)

Columns and labels:
Format in all cases: in vivo
[1] = test system: Alopecurus myosuroides (ALOMY); assay: Post-emergence activity, glasshouse pot test (100=total damage to plant; 0=no damage to plant); details: 336 h, evaluated 14 or 15 days after spraying; for pest or weed control at 500 g/ha: rate 500 g/ha
Description: (§1) Monocotyledonous and dicotyledonous test plants were sown in standard soil in pots. After cultivation for one day (pre-emergence) or after 10 days cultivation (post-emergence) under controlled conditions in a glasshouse, the plants were sprayed with an aqueous spray solution derived from the formulation of the technical active ingredient in 0.6 ml acetone and 45 ml formulation solution containing 10.6% Emulsogen EL (Registry number 61791-12-6), 42.2% N-methyl pyrrolidone, 42.2% dipropylene glycol monomethyl ether (Registry number 34590-94-8) and 0.2% X-77 (Registry number 11097-66-8). The test plants were then grown in a greenhouse under optimum conditions until, 14 or 15 days later for post-emergence and 19, 20 or 21 days for pre-emergence, the test was evaluated (100=total damage to plant; 0=no damage to plant). Alopecurus myosuroides (ALOMY), Avena fatua (AVEFA), Lolium perenne (LOLPE), Setaria faberi (SETFA), Digitaria sanguinalis (DIGSA), Echinochloa crus-galli (ECHCG) Post-Emergence Activity

Lolium perenne (LOLPE) [2] = assay: as above; details: 336 h, evaluated 14 or 15 days after spraying; for pest or weed control at 500 g/ha: rate 500 g/ha
Description: as §1

[3] = test system: Digitaria sanguinalis (DIGSA); assay: as above; details: evaluated 14 or 15 days after spraying; for pest or weed control at 500 g/ha: rate 500 g/ha
Description: as §1

Avena fatua (AVEFA) [4] = assay: as above; details: 336 h, evaluated 14 or 15 days after spraying; for pest or weed control at 500 g/ha: rate 500 g/ha
Description: as §1

Setaria faberi (SETFA) [5] = assay: as above; details: evaluated 14 or 15 days after spraying; for pest or weed control at 500 g/ha: rate 500 g/ha
Description: as §1

[6] = test system: Echinochloa crus-galli (ECHCG); assay: as above; details: evaluated 14 or 15 days after spraying; for pest or weed control at 500 g/ha: rate 500 g/ha
Description: as §1

[7] = test system: Alopecurus myosuroides (ALOMY); assay: Pre-emergence activity, glasshouse pot test (100=total damage to plant; 0=no damage to plant); details: rate 500 g/ha, evaluated 19, 20 or 21 days after spraying
Description: as §1, with “Pre-Emergence” for “Post-Emergence”

Lolium perenne (LOLPE) [8] = assay: as above; details: rate 500 g/ha, evaluated 19, 20 or 21 days after spraying
Description: as §1, with “Pre-Emergence” for “Post-Emergence”

[9] = test system: Digitaria sanguinalis (DIGSA); assay: as above; details: rate 500 g/ha, evaluated 19, 20 or 21 days after spraying
Description: as §1, with “Pre-Emergence” for “Post-Emergence”

Avena fatua (AVEFA) [10] = assay: as above; details: rate 500 g/ha, evaluated 19, 20 or 21 days after spraying
Description: as §1, with “Pre-Emergence” for “Post-Emergence”

Setaria faberi (SETFA) [11] = assay: as above; details: rate 500 g/ha, evaluated 19, 20 or 21 days after spraying
Description: as §1, with “Pre-Emergence” for “Post-Emergence”

[12] = test system: Echinochloa crus-galli (ECHCG); assay: as above; details: rate 500 g/ha, evaluated 19, 20 or 21 days after spraying
Description: as §1, with “Pre-Emergence” for “Post-Emergence”

Row | SMILES | pest or weed control at 500 g/ha [1] [%] | pest or weed control at 500 g/ha (Lolium perenne (LOLPE) [2]) [%] | pest or weed control at 500 g/ha [3] [%] | pest or weed control at 500 g/ha (Avena fatua (AVEFA) [4]) [%] | pest or weed control at 500 g/ha (Setaria faberi (SETFA) [5]) [%] | pest or weed control at 500 g/ha [6] [%] | pest or weed control at 500 g/ha [7] [%] | pest or weed control at 500 g/ha (Lolium perenne (LOLPE) [8]) [%] | pest or weed control at 500 g/ha [9] [%] | pest or weed control at 500 g/ha (Avena fatua (AVEFA) [10]) [%] | pest or weed control at 500 g/ha (Setaria faberi (SETFA) [11]) [%] | pest or weed control at 500 g/ha [12] [%] | pest or weed control at 125 g/ha ([1]; rate 125 g/ha) [%] | pest or weed control at 125 g/ha (Lolium perenne (LOLPE) [2]; rate 125 g/ha) [%] | pest or weed control at 125 g/ha ([3]; rate 125 g/ha) [%] | pest or weed control at 125 g/ha (Avena fatua (AVEFA) [4]; rate 125 g/ha) [%] | pest or weed control at 125 g/ha (Setaria faberi (SETFA) [5]; rate 125 g/ha) [%] | pest or weed control at 125 g/ha ([6]; rate 125 g/ha) [%]
1 | Cc1cc(C)c(C2=C(O)CC(C3CCS(=O)(=O)CC3)CC2=O)c(C)c1 (stereo not drawn) [Compound T17] | 20 | 0 | 90 | 20 | 90 | 90 | 20 | 0 | 60 | 70 | 50 | 60 |  |  |  |  |  | 
2 | CCc1cc(C)cc(CC)c1C1=C(O)CC(C2CCOCC2)CC1=O (stereo not drawn) [Compound T2, 2-(2,6-diethyl-4-methylphenyl)-5-(tetrahydropyran-4-yl)cyclohexane-1,3-dione] | 90 | 90 | 100 | 100 | 90 | 100 | 100 | 100 | 100 | 100 | 100 | 90 |  |  |  |  |  | 
3 | CCc1cc(C)cc(C)c1C1=C(O)CC(C2CCSCC2)CC1=O (stereo not drawn) [Compound T21] | 80 | 70 | 80 | 70 | 90 | 100 | 40 | 40 | 100 | 70 | 100 | 100 |  |  |  |  |  | 
4 | CCc1cc(C)cc(C)c1C1=C(O)CC(C2CCOC2)CC1=O (stereo not drawn) [Compound T11] | 90 | 90 | 100 | 90 | 100 | 100 | 80 | 80 | 100 | 70 | 100 | 100 |  |  |  |  |  | 
5 | CCc1cc(C)cc(CC)c1C1=C(OC(=O)C(C)(C)C)CC(C2CCS(=O)(=O)CC2)CC1=O (stereo not drawn) [Compound P3] |  |  |  |  |  |  | 90 | 90 | 100 | 80 | 90 | 100 | 70 | 0 | 70 | 30 | 60 | 60
6 | CCc1cc(C)cc(CC)c1C1=C(O)CC(C2CCCSC2)CC1=O (stereo not drawn) [Compound T13] | 100 | 100 | 90 | 100 | 100 | 90 | 90 | 100 | 100 | 80 | 100 | 100 |  |  |  |  |  | 
7 | Cc1ccc(-c2ccc(Cl)cc2)cc1C1=C(O)CC(C2CCOCC2)CC1=O (stereo not drawn) [Compound T9] | 80 | 100 | 90 | 70 | 80 | 100 | 60 | 100 | 80 | 60 | 100 | 100 |  |  |  |  |  | 
